Consider one compound from PMC3830479 (Journal of Experimental Botany, 2013).

The target of assay [1] is T1, OsG6PDH1 (Oryza sativa, UniProt Q0DZS9).
T1 construct: gene Os02g0600400; coding region in pET32 (N-terminal fusion, His-tag), E. coli SoluBL21, HisTrap purified
T1 sequence (Q0DZS9 1-517): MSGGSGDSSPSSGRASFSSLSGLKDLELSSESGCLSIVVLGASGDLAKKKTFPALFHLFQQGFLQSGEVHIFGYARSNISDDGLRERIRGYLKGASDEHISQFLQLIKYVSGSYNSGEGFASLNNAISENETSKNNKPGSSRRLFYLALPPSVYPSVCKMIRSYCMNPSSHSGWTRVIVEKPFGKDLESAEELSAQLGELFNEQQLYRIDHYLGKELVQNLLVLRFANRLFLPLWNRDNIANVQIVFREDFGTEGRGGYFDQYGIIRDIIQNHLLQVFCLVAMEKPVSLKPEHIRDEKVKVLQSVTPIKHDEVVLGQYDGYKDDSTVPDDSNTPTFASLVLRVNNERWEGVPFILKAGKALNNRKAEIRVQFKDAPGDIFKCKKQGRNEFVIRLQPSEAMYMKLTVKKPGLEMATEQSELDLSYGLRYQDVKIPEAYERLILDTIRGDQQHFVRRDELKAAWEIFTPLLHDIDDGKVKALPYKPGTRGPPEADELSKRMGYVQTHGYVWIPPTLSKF
In words: inhibition of G6PDH activity. It counts as biochemical. To be noted: feedback (product) inhibition.

The target of assay [2] is T2, OsG6PDH2 (Oryza sativa, UniProt Q7X7I6).
T2 construct: gene Os04g0485300; coding region in pET32 (N-terminal fusion, His-tag), E. coli SoluBL21, HisTrap purified
T2 sequence (Q7X7I6 1-505): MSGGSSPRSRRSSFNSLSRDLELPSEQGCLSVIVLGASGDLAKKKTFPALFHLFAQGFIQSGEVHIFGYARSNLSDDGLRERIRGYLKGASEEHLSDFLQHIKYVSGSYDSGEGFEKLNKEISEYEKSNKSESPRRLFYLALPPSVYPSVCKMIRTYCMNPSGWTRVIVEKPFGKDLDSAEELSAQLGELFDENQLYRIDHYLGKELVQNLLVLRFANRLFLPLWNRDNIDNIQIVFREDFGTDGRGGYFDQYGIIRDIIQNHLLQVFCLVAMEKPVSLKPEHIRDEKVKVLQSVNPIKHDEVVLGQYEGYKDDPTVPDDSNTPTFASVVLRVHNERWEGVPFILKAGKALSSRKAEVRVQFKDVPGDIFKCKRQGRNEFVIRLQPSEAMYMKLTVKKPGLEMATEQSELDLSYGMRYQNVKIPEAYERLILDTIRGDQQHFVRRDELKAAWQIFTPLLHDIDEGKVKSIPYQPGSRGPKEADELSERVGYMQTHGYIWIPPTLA
In words: inhibition of G6PDH activity. It counts as biochemical. The following applies: feedback (product) inhibition.

Assay [3] deals with T1, OsG6PDH1. Set-up: Recombinant G6PDH spectrophotometric assay at 340 nm with G6P, NADP+ reduction, 25 °C, pH 7.6. The following applies: feedback inhibition, G6P/NADP+ assay; inhibitor; read-out: Ki NADPH. On the procedure:
(§1) The activity of recombinant rice G6PDHs was measured spectrophotometrically (340nm) at 25 °C by detecting NADP reduction via G6PDH reaction, which is coupled with G6P production, as described by [Wakao and Benning (2005)]. Reaction mixtures with 0.01–10mM G6P contained 0.2M TRIS (pH 7.6), NADP^+ (0.01–10mM), and MgCl2 (5mM). DTT (10mM) was incubated with the reaction mixture for 1h to test its activity. The DNA fragment containing the coding region of OsHXK5, OsHXK6, AlsK, OsG6PDH1, or OsG6PDH2 was subcloned in-frame into the pET32 vector (Novagen), and overexpressed in E. coli SoluBL21 (Genlantis, San Diego, CA, USA) according to the manufacturer’s instructions. The recombinant proteins were purified using a HisTrap HP column (GE Healthcare, Wauwatosa, WI, USA) as per the manufacturer’s instructions and dialysed against 0.2M TRIS-HCl buffer (pH 7.6) containing MgCl2 (5mM). Recombinant proteins of OsG6PDH1 and OsG6PDH2 had enzymatic activity with G6P and NADP^+, and OsG6PDH1 had higher activity based on k cat/K m values (Table 2). […] Neither enzyme used A6P as a substrate (Supplementary Table S3).

Assay [4] addresses T2, OsG6PDH2. Set-up: Recombinant G6PDH spectrophotometric assay at 340 nm with G6P, NADP+ reduction, 25 °C, pH 7.6. To be noted: feedback inhibition, G6P/NADP+ assay; inhibitor; read-out: Ki NADPH. As to the method:
as §1

pKi: −log10 of the molar value.

On to `NC(=O)C1=CN([C@@H]2O[C@H](COP(=O)(O)OP(=O)(O)OC[C@H]3O[C@@H](n4cnc5c(N)ncnc54)[C@H](OP(=O)(O)O)[C@@H]3O)[C@@H](O)[C@H]2O)C=CC1` [NADPH], for which the “inhibition of G6PDH activity” value in assay [1] was “OsG6PDH1 and OsG6PDH2 suffered tight feedback inhibition by NADPH”; in assay [2], “OsG6PDH1 and OsG6PDH2 suffered tight feedback inhibition by NADPH”. In addition, the pKi (usually the Ki on a negative log10 scale, so that one unit is a factor of ten) is 4.38 in assay [3] and 4.52 in assay [4].
